{"source": "patent US10167293B2", "about": "“[8-(phenylsulfonyl)-3,8-diazabicyclo[3.2.1]oct-3-yl](1H-1,2,3-triazol-4-yl)methanones” (BAYER PHARMA AKTIENGESELLSCHAFT, priority 2016, dated 2019)", "data": [{"target": "recombinant human AKR1C3 (Homo sapiens (Human), UniProt P42330)", "sequence (P42330 whole entry)": "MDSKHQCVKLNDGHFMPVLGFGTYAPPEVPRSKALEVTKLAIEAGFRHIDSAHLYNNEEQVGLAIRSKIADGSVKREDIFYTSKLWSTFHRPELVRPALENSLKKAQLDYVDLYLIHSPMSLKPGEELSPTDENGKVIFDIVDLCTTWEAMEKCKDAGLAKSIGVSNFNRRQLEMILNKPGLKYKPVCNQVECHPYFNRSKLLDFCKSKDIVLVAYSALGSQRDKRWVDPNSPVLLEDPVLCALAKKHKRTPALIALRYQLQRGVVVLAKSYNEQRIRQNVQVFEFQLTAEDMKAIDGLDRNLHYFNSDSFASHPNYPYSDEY", "test": "AKR1C3-inhibitory activity assay (Coumberone to Coumberol fluorescence)", "type": "biochemical", "conditions": "recombinant human AKR1C3, 15 min pre-incubation, 10 μM NADPH, 0.3 μM Coumberone", "experimental": "The AKR1C3-inhibitory activity of the substances of the present invention was measured in the AKR1C3 assay described in the paragraphs below.\nEssentially, the enzyme activity is measured by quantification of the generation of Coumberol from Coumberone (Halim et al. J. AM. CHEM. SOC. 2008, 130:14123-14128 and Yee et al. Proc. Natl. Acad. Sci. USA 2006, 103:13304-13309). In this test, the increase of the highly fluorescent Coumberol by NADPH—(nicotinamide adenine dinucleotide phosphate)-dependent reduction of the non-fluorescent Coumberone by AKR1C3 was determined.\nThe enzyme used was recombinant human AKR1C3 (Aldo-keto reductase family 1 member C3; GenBank Accession No. NM_003739). This was expressed in E. coli as GST (glutathione S transferase) fusion protein and purified by glutathione Sepharose affinity chromatography. The GST was removed by digestion with thrombin and subsequent size exclusion chromatography (Dufort, I., Rheault, P., Huang, X F., Soucy, P., and Luu-The, V., Endocrinology 140, 568-574 (1999)).\nFor the assay, 50 nl of a 100-fold concentrated solution of the test substance in DMSO were pipetted into a black low-volume 384-well microtiter plate (Greiner Bio-One, Frickenhausen, Germany), 2.5 μl of a solution of AKR1C3 in assay buffer [50 mM potassium phosphate buffer pH 7, 1 mM DTT, 0.0022% (w/v) Pluronic F-127, 0.01% BSA (w/v) and protease inhibitor cocktail (Complete, EDTA-free Protease Inhibitor Cocktail from Roche)] were added and the mixture was incubated for 15 min to allow pre-binding of the substances to the enzyme prior to the enzyme reaction. The enzyme reaction was then started by addition of 2.5 μl of a solution of NADPH (20 μM→final concentration in 5 μl of assay volume is 10 μM) and Coumberone (0.6 μM→final concentration in 5 μl of assay volume is 0.3 μM) in assay buffer, and the resulting mixture was incubated at 22° C. for the reaction time of typically 90 min. The concentration of the AKR1C3 and the reaction time was adapted to the respective activity of the enzyme preparation and adjusted such that the assay was carried out in the linear range. Typical AKR1C3 concentrations were in the region of 1 nM. The reaction was stopped by addition of 2.5 μl of a stop solution consisting of 3 μM EM-1404 as inhibitor (U.S. Pat. No. 6,541,463) in 50 mM HEPES pH7.5 (3 μM EM-1404→final concentration in 7.5 μl of assay volume is 1 μM). The fluorescence of the Coumberole was then measured at 520 nm (excitation at 380 nm) using a suitable measuring instrument (Pherastar from BMG Labtechnologies). The intensity of the fluorescence was used as a measure of the amount of Coumberole formed and thus of the enzyme activity of AKR1C3. The data were normalized (enzyme reaction without inhibitor=0% inhibition; all other assay components, but no enzyme=100% inhibition).", "units": {"IC50": "nM"}, "values": [{"smiles": "O=C(c1cnn[nH]1)N1CC2CCC(C1)N2S(=O)(=O)c1cccc(C(F)(F)F)c1", "note": "[Example 29, 1H-1,2,3-triazol-5-yl[8-{[3-(trifluoromethyl)phenyl]sulfonyl}-3,8-diazabicyclo[3.2.1]oct-3-yl]methanone]", "IC50": 0.9}, {"smiles": "O=C(c1cnn[nH]1)N1CC2CCC(C1)N2S(=O)(=O)c1ccc(F)c(F)c1", "note": "[Example 23, {8-[(3,4-difluorophenyl)sulfonyl]-3,8-diazabicyclo[3.2.1]oct-3-yl}(1H-1,2,3-triazol-5-yl)methanone]", "IC50": 2.2}, {"smiles": "COc1ccc(S(=O)(=O)N2C3CCC2CN(C(=O)c2cnn[nH]2)C3)cc1", "note": "[Example 21, {8-[(4-methoxyphenyl)sulfonyl]-3,8-diazabicyclo[3.2.1]oct-3-yl}(1H-1,2,3-triazol-5-yl)methanone]", "IC50": 2}, {"smiles": "COc1ccccc1S(=O)(=O)N1C2CCC1CN(C(=O)c1cnn[nH]1)C2", "note": "[Example 64, {8-[(2-methoxyphenyl)sulfonyl]-3,8-diazabicyclo[3.2.1]oct-3-yl}(1H-1,2,3-triazol-5-yl)methanone]", "IC50": 1.3}, {"smiles": "Cc1ccc(S(=O)(=O)N2C3CCC2CN(C(=O)c2cnn[nH]2)C3)cc1", "note": "[Example 14, {8-[(4-methylphenyl)sulfonyl]-3,8-diazabicyclo[3.2.1]oct-3-yl}(1H-1,2,3-triazol-5-yl)methanone]", "IC50": 1.9}, {"smiles": "O=C(c1cnn[nH]1)N1CC2CCC(C1)N2S(=O)(=O)c1cc(F)ccc1Cl", "note": "[Example 70, {8-[(2-chloro-5-fluorophenyl)sulfonyl]-3,8-diazabicyclo[3.2.1]oct-3-yl}(1H-1,2,3-triazol-5-yl)methanone]", "IC50": 0.5}, {"smiles": "O=C(c1c[nH]nn1)N1CC2CCC(C1)N2S(=O)(=O)c1ccccc1C(F)(F)F", "note": "[Example 2, 1H-1,2,3-triazol-4-yl[8-{[2-(trifluoromethyl)phenyl]sulfonyl}-3,8-diazabicyclo[3.2.1]oct-3-yl]methanone]", "IC50": 1}, {"smiles": "O=C(c1cnn[nH]1)N1CC2CCC(C1)N2S(=O)(=O)c1ccc(F)cc1Cl", "note": "[Example 50, {8-[(2-chloro-4-fluorophenyl)sulfonyl]-3,8-diazabicyclo[3.2.1]oct-3-yl}(1H-1,2,3-triazol-5-yl)methanone]", "IC50": 0.9}, {"smiles": "Cc1cc(C)cc(S(=O)(=O)N2C3CCC2CN(C(=O)c2cnn[nH]2)C3)c1", "note": "[Example 18, {8-[(3,5-dimethylphenyl)sulfonyl]-3,8-diazabicyclo[3.2.1]oct-3-yl}(1H-1,2,3-triazol-5-yl)methanone]", "IC50": 1}, {"smiles": "Cc1cccc(Cl)c1S(=O)(=O)N1C2CCC1CN(C(=O)c1cnn[nH]1)C2", "note": "[Example 51, {8-[(2-chloro-6-methylphenyl)sulfonyl]-3,8-diazabicyclo[3.2.1]oct-3-yl}(1H-1,2,3-triazol-5-yl)methanone]", "IC50": 0.8}, {"smiles": "COc1cccc(S(=O)(=O)N2C3CCC2CN(C(=O)c2cnn[nH]2)C3)c1", "note": "[Example 20, {8-[(3-methoxyphenyl)sulfonyl]-3,8-diazabicyclo[3.2.1]oct-3-yl}(1H-1,2,3-triazol-5-yl)methanone]", "IC50": 1}, {"smiles": "O=C(c1cnn[nH]1)N1CC2CCC(C1)N2S(=O)(=O)c1cc(Cl)ccc1F", "note": "[Example 61, {8-[(5-chloro-2-fluorophenyl)sulfonyl]-3,8-diazabicyclo[3.2.1]oct-3-yl}(1H-1,2,3-triazol-5-yl)methanone]", "IC50": 1.5}, {"smiles": "O=C(c1cnn[nH]1)N1CC2CCC(C1)N2S(=O)(=O)c1ccc(Br)cc1", "note": "[Example 38, {8-[(4-bromophenyl)sulfonyl]-3,8-diazabicyclo[3.2.1]oct-3-yl}(1H-1,2,3-triazol-5-yl)methanone]", "IC50": 1.5}, {"smiles": "Cc1ccc(C)c(S(=O)(=O)N2C3CCC2CN(C(=O)c2cnn[nH]2)C3)c1", "note": "[Example 19, {8-[(2,5-dimethylphenyl)sulfonyl]-3,8-diazabicyclo[3.2.1]oct-3-yl}(1H-1,2,3-triazol-5-yl)methanone]", "IC50": 1.1}, {"smiles": "O=C(c1cnn[nH]1)N1CC2CCC(C1)N2S(=O)(=O)c1ccc2nsnc2c1", "note": "[Example 58, [8-(2,1,3-benzothiadiazol-5-ylsulfonyl)-3,8-diazabicyclo[3.2.1]oct-3-yl](1H-1,2,3-triazol-5-yl)methanone]", "IC50": 1.2}, {"smiles": "O=C(c1cnn[nH]1)N1CC2CC[C@@H](C1)N2S(=O)(=O)c1cccc(Cl)c1Cl", "note": "[Example 53, {(1S)-8-[(2,3-dichlorophenyl)sulfonyl]-3,8-diazabicyclo[3.2.1]oct-3-yl}(1H-1,2,3-triazol-5-yl)methanone]", "IC50": 0.8}, {"smiles": "O=C(c1cnn[nH]1)N1CC2CCC(C1)N2S(=O)(=O)c1cccc(F)c1", "note": "[Example 4, {8-[(3-fluorophenyl)sulfonyl]-3,8-diazabicyclo[3.2.1]oct-3-yl}(1H-1,2,3-triazol-5-yl)methanone]", "IC50": 1.2}, {"smiles": "O=C(c1cnn[nH]1)N1CC2CCC(C1)N2S(=O)(=O)c1ccc(OC(F)(F)F)cc1", "note": "[Example 41, 1H-1,2,3-triazol-5-yl[8-{[4-(trifluoromethoxy)phenyl]sulfonyl}-3,8-diazabicyclo[3.2.1]oct-3-yl]methanone]", "IC50": 6.5}, {"smiles": "O=C(c1cnn[nH]1)N1CC2CCC(C1)N2S(=O)(=O)c1cccc(Cl)c1", "note": "[Example 5, {8-[(3-chlorophenyl)sulfonyl]-3,8-diazabicyclo[3.2.1]oct-3-yl}(1H-1,2,3-triazol-4-yl)methanone]", "IC50": 1.2}, {"smiles": "O=C(c1cnn[nH]1)N1CC2CCC(C1)N2S(=O)(=O)c1cccc(F)c1Cl", "note": "[Example 71, {8-[(2-chloro-3-fluorophenyl)sulfonyl]-3,8-diazabicyclo[3.2.1]oct-3-yl}(1H-1,2,3-triazol-5-yl)methanone]", "IC50": 0.8}, {"smiles": "O=C(c1cnn[nH]1)N1CC2CCC(C1)N2S(=O)(=O)c1cccc2nonc12", "note": "[Example 55, [8-(2,1,3-benzoxadiazol-4-ylsulfonyl)-3,8-diazabicyclo[3.2.1]oct-3-yl](1H-1,2,3-triazol-5-yl)methanone]", "IC50": 2.7}, {"smiles": "O=C(c1cnn[nH]1)N1CC2CCC(C1)N2S(=O)(=O)c1ccc(F)cc1", "note": "[Example 16, {8-[(4-fluorophenyl)sulfonyl]-3,8-diazabicyclo[3.2.1]oct-3-yl}(1H-1,2,3-triazol-5-yl)methanone]", "IC50": 2.2}, {"smiles": "O=C(c1c[nH]nn1)N1CC2CCC(C1)N2S(=O)(=O)c1cccc(S(F)(F)(F)(F)F)c1", "note": "[Example 8, [8-{[3-(pentafluoro-lambda^6-sulfanyl)phenyl]sulfonyl}-3,8-diazabicyclo[3.2.1]oct-3-yl](1H-1,2,3-triazol-4-yl)methanone]", "IC50": 1.3}, {"smiles": "Cc1ccccc1S(=O)(=O)N1C2CCC1CN(C(=O)c1cnn[nH]1)C2", "note": "[Example 6, {8-[(2-methylphenyl)sulfonyl]-3,8-diazabicyclo[3.2.1]oct-3-yl}(1H-1,2,3-triazol-4-yl)methanone]", "IC50": 1.7}, {"smiles": "O=C(c1cnn[nH]1)N1CC2CCC(C1)N2S(=O)(=O)c1ccc(F)cc1F", "note": "[Example 25, {8-[(2,4-difluorophenyl)sulfonyl]-3,8-diazabicyclo[3.2.1]oct-3-yl}(1H-1,2,3-triazol-5-yl)methanone]", "IC50": 2.6}, {"smiles": "O=C(c1c[nH]nn1)N1CC2CCC(C1)N2S(=O)(=O)c1cc(Cl)cc(Cl)c1", "note": "[Example 9, {8-[(3,5-dichlorophenyl)sulfonyl]-3,8-diazabicyclo[3.2.1]oct-3-yl}(1H-1,2,3-triazol-4-yl)methanone]", "IC50": 0.9}, {"smiles": "COc1ccc(OC)c(S(=O)(=O)N2C3CCC2CN(C(=O)c2cnn[nH]2)C3)c1", "note": "[Example 47, {8-[(2,5-dimethoxyphenyl)sulfonyl]-3,8-diazabicyclo[3.2.1]oct-3-yl}(1H-1,2,3-triazol-5-yl)methanone]", "IC50": 29.8}]}]}
